Results reported in ChEMBL document CHEMBL5113480, “Discovery of novel biphenyl-substituted pyridone derivatives as potent non-nucleoside reverse transcriptase inhibitors with promising oral bioavailability” (Eur J Med Chem, 2022).

Assays:
[1] = system: Human immunodeficiency virus 1; test: Antiviral activity against HIV-1 IIIB infected in human MT4 cells assessed as reduction in viral replication by MTT assay; type: functional, organism-based; settings: Human immunodeficiency virus 1, IIIB
[2] = system: Human immunodeficiency virus 1; test: Antiviral activity against HIV-1 ROD infected in human MT4 cells assessed as reduction in viral replication by MTT assay; type: functional, organism-based
[3] = Cytotoxicity against human MT4 cells assessed as reduction on cell growth by MTT assay; type: toxicity, cell-based
[4] = Selectivity index, ratio of CC50 for cytotoxicity against human MT4 cells to EC50 of Anti-HIV activity against HIV-1 IIIB infected in human MT4 cells; type: toxicity, cell-based; settings: read-out: Ratio CC50/EC50
[5] = system: Human immunodeficiency virus 1; test: Antiviral activity against HIV-1 L100I mutant infected in human MT4 cells assessed as reduction in viral replication by MTT assay; type: functional, organism-based; settings: Human immunodeficiency virus 1, L100I mutant
[6] = system: Human immunodeficiency virus 1; test: Antiviral activity against HIV-1 K103N mutant infected in human MT4 cells assessed as reduction in viral replication by MTT assay; type: functional, organism-based; settings: Human immunodeficiency virus 1, K103N mutant
[7] = system: Human immunodeficiency virus 1; test: Antiviral activity against HIV-1 Y181C mutant infected in human MT4 cells assessed as reduction in viral replication by MTT assay; type: functional, organism-based; settings: Human immunodeficiency virus 1, Y181C mutant
[8] = system: Human immunodeficiency virus 1; test: Antiviral activity against HIV-1 Y188L mutant infected in human MT4 cells assessed as reduction in viral replication by MTT assay; type: functional, organism-based; settings: Human immunodeficiency virus 1, Y188L mutant
[9] = system: Human immunodeficiency virus 1; test: Antiviral activity against HIV-1 E138K mutant infected in human MT4 cells assessed as reduction in viral replication by MTT assay; type: functional, organism-based; settings: Human immunodeficiency virus 1, E138K mutant
[10] = system: Human immunodeficiency virus 1; test: Antiviral activity against HIV-1 F227L-V106A mutant infected in human MT4 cells assessed as reduction in viral replication by MTT assay; type: functional, organism-based; settings: Human immunodeficiency virus 1, F227L-V106A mutant
[11] = system: Human immunodeficiency virus 1; test: Antiviral activity against HIV-1 K103N-Y181C mutant infected in human MT4 cells assessed as reduction in viral replication by MTT assay; type: functional, organism-based; settings: Human immunodeficiency virus 1, K103N-Y181C mutant
[12] = biological target: Human immunodeficiency virus type 1 reverse transcriptase (Human immunodeficiency virus 1, UniProt Q72547); test: Inhibition of wild type HIV-1 Reverse transcriptase

Row | Structure (SMILES) | EC50 [1] | EC50 [2] | CC50 [3] | selectivity ratio [4] | EC50 [5] | EC50 [6] | EC50 [7] | EC50 [8] | EC50 [9] | EC50 [10] | EC50 [11] | IC50 [12]
1 | Cc1cc(-c2cccc(F)c2)ccc1Oc1c(C(F)(F)F)ccn(Cc2n[nH]c(=O)n2C)c1=O | 5.14 µM | > 35 µM | 26.7 µM | 5.2 | 3.64 µM | 2.59 µM | > 35 µM | > 35 µM | 3.99 µM | > 35 µM | > 35 µM | 5.44 µM
2 | Cn1c(Cn2ccc(C(F)(F)F)c(Oc3ccc(-c4cc(F)cc(C#N)c4)cc3Cl)c2=O)n[nH]c1=O | 3.38 µM | > 35 µM | 19.3 µM | 5.71 | 2.41 µM | 3.29 µM | 7.14 µM | > 35 µM | 3.29 µM | > 35 µM | > 35 µM | 4.37 µM
3 | Cn1c(Cn2ccc(C(F)(F)F)c(Oc3ccc(-c4ccc(F)c(C#N)c4)cc3Cl)c2=O)n[nH]c1=O | 4.53 µM | > 35 µM | 24.4 µM | 5.39 | 3.31 µM | 3.87 µM | > 35 µM | > 35 µM | 6.78 µM | > 35 µM | > 35 µM | 10.3 µM
4 | Cc1cc(-c2ccc(F)c(C#N)c2)ccc1Oc1c(C(F)(F)F)ccn(Cc2n[nH]c(=O)n2C)c1=O | 1.83 µM | > 35 µM | 25 µM | 13.7 | 2.73 µM | 1.59 µM | 6.03 µM | > 35 µM | 2.31 µM | > 35 µM | 8.59 µM | 5.49 µM
5 | Cn1c(Cn2ccc(C(F)(F)F)c(Oc3ccc(-c4cccc(C#N)c4)cc3Cl)c2=O)n[nH]c1=O | 4.07 µM | > 35 µM | 22.9 µM | 5.62 | 2.35 µM | 2.92 µM | > 35 µM | > 35 µM | 3.56 µM | > 35 µM | > 35 µM | 7.21 µM
6 | Cc1cc(-c2cc(F)cc(C#N)c2)ccc1Oc1c(C(F)(F)F)ccn(Cc2n[nH]c(=O)n2C)c1=O | 1.33 µM | > 35 µM | 23.3 µM | 17.6 | 1.9 µM | 1.27 µM | 5.96 µM | > 35 µM | 1.9 µM | > 35 µM | 6.89 µM | 5.34 µM
7 | COc1cc(-c2cccc(C#N)c2)ccc1Oc1c(C(F)(F)F)ccn(Cc2n[nH]c(=O)n2C)c1=O | 8.47 µM | > 35 µM | 126 µM | 14.8 | 5.61 µM | 12 µM | 13.4 µM | > 35 µM | 18.5 µM | > 35 µM | > 35 µM | 28.6 µM
8 | Cc1cc(-c2ccc(F)cc2)ccc1Oc1c(C(F)(F)F)ccn(Cc2n[nH]c(=O)n2C)c1=O | 5.05 µM | > 35 µM | 26 µM | 5.15 | 3.26 µM | 3.36 µM | > 35 µM | > 35 µM | 3.94 µM | > 35 µM | > 35 µM | 5.4 µM
9 | Cc1cc(-c2cccc(C#N)c2)ccc1Oc1c(C(F)(F)F)ccn(Cc2n[nH]c(=O)n2C)c1=O | 1.35 µM | > 35 µM | 27.2 µM | 20.2 | 1.38 µM | 1.04 µM | 4.75 µM | > 35 µM | 1.81 µM | > 35 µM | 6.69 µM | 4.73 µM
10 | COc1cc(-c2ccc(F)c(C#N)c2)ccc1Oc1c(C(F)(F)F)ccn(Cc2n[nH]c(=O)n2C)c1=O | 17.9 µM | > 35 µM | 102 µM | 5.74 | 4.41 µM | 11.2 µM | 14.7 µM | > 35 µM | 21.8 µM | > 35 µM | > 35 µM | 42.5 µM
11 | Cc1cc(-c2ccc(C#N)cc2)ccc1Oc1c(C(F)(F)F)ccn(Cc2n[nH]c(=O)n2C)c1=O | 1.54 µM | > 35 µM | 33.4 µM | 21.7 | 1.63 µM | 1.65 µM | 6.26 µM | > 35 µM | 2.42 µM | > 35 µM | 6.55 µM | 4.8 µM
12 | COc1cc(-c2cc(F)cc(C#N)c2)ccc1Oc1c(C(F)(F)F)ccn(Cc2n[nH]c(=O)n2C)c1=O | 10.8 µM | > 35 µM | 113 µM | 10.4 | 7.77 µM | 16 µM | 14.2 µM | > 35 µM | 20.5 µM | > 35 µM | > 35 µM | 27.8 µM
13 | Cn1c(Cn2ccc(C(F)(F)F)c(Oc3ccc(-c4ccc(F)c(C#N)c4)cc3F)c2=O)n[nH]c1=O | 5.12 µM | > 35 µM | 65.5 µM | 12.8 | 7.27 µM | 7.27 µM | 39.6 µM | 44.8 µM | 7.72 µM | > 35 µM | > 35 µM | 7 µM
14 | Cn1c(Cn2ccc(C(F)(F)F)c(Oc3ccc(-c4ccc(C#N)cc4)cc3F)c2=O)n[nH]c1=O | 4.8 µM | > 35 µM | 41.8 µM | 8.72 | 4.6 µM | 6.13 µM | 48.3 µM | > 35 µM | 7.06 µM | > 35 µM | > 35 µM | 6.35 µM
15 | Cn1c(Cn2ccc(C(F)(F)F)c(Oc3ccc(-c4ccc(C#N)cc4)cc3Cl)c2=O)n[nH]c1=O | 6.02 µM | > 35 µM | 21.5 µM | 3.58 | 4.55 µM | 6.35 µM | > 35 µM | > 35 µM | 6.18 µM | > 35 µM | > 35 µM | 6.73 µM
16 | Cn1c(Cn2ccc(C(F)(F)F)c(Oc3ccc(-c4cc(F)cc(C#N)c4)cc3F)c2=O)n[nH]c1=O | 3.36 µM | > 35 µM | 69.2 µM | 20.6 | 3.72 µM | 8.33 µM | 38.8 µM | 41.5 µM | 4.02 µM | 38.9 µM | > 35 µM | 5.98 µM
